# Experimental data reported in paper PMC11969009 (Nature Communications, 2025).
# Tested on: SARS-CoV-2 P2 strain
# Parameters: species or system C57BL/6 (WT) mice
# Details: mouse, in vivo
smiles,measurement,value
"CC(C)c1nc(CN(C)C(=O)N[C@H](C(=O)N[C@@H](Cc2ccccc2)C[C@H](O)[C@H](Cc2ccccc2)NC(=O)OCc2cncs2)C(C)C)cs1 [ritonavir, reference compound]","antiviral activity (lung viral burden), mild model",no antiviral activity
